Laboratory results published in patent US4603128A, “Mineralocorticoid hormone antagonists” (priority 1984, dated 1986).
Read-outs that look alike come from different tables or passages of the source.

Key:
[1] = tested on: mineralocorticoid receptor of mammalian kidney; assay: Mineralocorticoid receptor affinity (competition with 3H-aldosterone); assay type: binding; settings: for Corticosteroid Receptor Affinity % Mineralocorticoid: amount of aldosterone vs amount of steroid for 50% reduction in binding of 1.3×10^-9 M 3H-aldosterone, kidney cytosol, aldosterone = 100; for Affinity Mineralocorticoid:Androgen Ratio: ratio of mineralocorticoid to androgen receptor affinity (therapeutic index)
Method: Each assay tube contained 250 μl cytosol solution and 1,2-^3 H-aldosterone at a final steroid concentration of 1.3×10^-9 M. Standard curves were prepared in the range of 0.1 to 100 ng aldosterone and non-specific binding of 10^-5 M aldosterone was subtracted. The amount of steroid ligand required to effect 50% reduction in the binding of labeled aldosterone compared to the amount of aldosterone to effect the same reduction was expressed as a percentage.

[2] = tested on: adrenalectomized rat; assay: Mineralocorticoid antagonism in vivo, adrenalectomized rat assay (urinary Na/K); settings: for In vivo antagonist activity compared with corresponding 7α-propionylthio derivative (Controls A, B, C, D): same substituents at C-21
Method: The bioassay for anti-mineralocorticoid activity was carried out as described for the assay of mineralocorticoid agonist activity by Ulick, Land and Chu, (Endocrinology 99:619, 1976), except that the control group received 1 μg of aldosterone per 100 g body weight and the experimental group received the test substance in addition. All results were expressed as ratio of control urinary Na/K to treatment urinary Na/K. The minimum effective dose of antagonist was defined as that amount of test substance required to block one-half of the effect of 1 μg. aldosterone/100 g body weight as measured by the ratio of control: treatment urinary Na/K.

[3] = subcutaneous, with 1 μg aldosterone per 100 g body weight, dose reducing urinary Na/K effect to one half, inactive = no antagonist activity at 250 μg/100 g
[4] = Rattus norvegicus, sc, subcutaneous, with 1 μg aldosterone per 100 g body weight, dose reducing urinary Na/K effect to one half, inactive = no antagonist activity at 250 μg/100 g, read-out: Mineralocorticoid antagonism Minimum effective dose
[5] = oral route, adrenalectomized rat, read-out: Mineralocorticoid antagonism Minimum effective dose oral

Row | SMILES | Corticosteroid Receptor Affinity % Mineralocorticoid [1] [%] | ED50 [2, 4] [mg/kg] | Affinity Mineralocorticoid:Androgen Ratio [1] | also measured
1 | C[C@]12CCC(=O)C=C1CC[C@@H]1[C@@H]2[C@@H](O)C[C@]2(C=O)[C@@H](C(=O)CO)CC[C@@H]12 [Aldosterone, reference compound] | 100 |  |  | 
2 | CCCCCCC(=O)OCC(=O)[C@H]1CC[C@H]2[C@@H]3[C@H](SC(=O)CC)CC4=CC(=O)CC[C@]4(C)[C@H]3CC[C@]12C [Control D, 7α-Propionylthio-21-heptanoyloxy-4-pregnene-3,20-dione, reference compound] |  |  |  | Mineralocorticoid antagonism Minimum effective dose [2, 3]: inactive
3 | CCC(=O)S[C@@H]1CC2=CC(=O)CC[C@]2(C)[C@H]2CC[C@]3(C)[C@@H](C(C)=O)CC[C@H]3[C@H]12 [Control A, 7α-Propionylthio-4-pregnene-3,20-dione, reference compound] |  | 2 |  | 
4 | CCC(=O)OCC(=O)[C@H]1CC[C@H]2[C@@H]3[C@H](SC(C)=O)CC4=CC(=O)CC[C@]4(C)[C@H]3CC[C@]12C [Example 4] | 38 | 1 | 190 | 
5 | CC(=O)S[C@@H]1CC2=CC(=O)CC[C@]2(C)[C@H]2CC[C@]3(C)[C@@H](C(=O)CO)CC[C@H]3[C@H]12 [Example 2, 7α-Acetylthio-21-hydroxy-4-pregnene-3,20-dione] | 35 | 0.75 | 175 | 
6 | CC(=O)S[C@@H]1CC2=CC(=O)CC[C@]2(C)[C@H]2CC[C@@]3(C)[C@@H](CC[C@@]34CCC(=O)O4)[C@H]12 [Spironolactone, spironolactone, reference compound] | 18 | 2.5 |  | ED50 [2, 5]: 10 mg/kg; Mineralocorticoid antagonism Minimum effective dose [2, 3]: 250 μg/100 g
7 | CC(=O)OCC(=O)[C@H]1CC[C@H]2[C@@H]3[C@H](SC(C)=O)CC4=CC(=O)CC[C@]4(C)[C@H]3CC[C@]12C [Example 3, 7α-Acetylthio-21-acetoxy-4-pregnene-3,20-dione] | 65 | 0.25 | 325 | Affinity ratio index compared with spironolactone ([1]; mineralocorticoid:androgen affinity ratio relative to spironolactone): ~40 times; Dose of spironolactone relative to compound required for equivalent mineralocorticoid antagonist effect, oral ([2]; oral route): four-fold; ED50 [2, 5]: 2.5 mg/kg; In vivo antagonist activity compared with corresponding 7α-propionylthio derivative (Controls A, B, C, D) [2]: always more active; Effectiveness relative to spironolactone, subcutaneous ([2]; subcutaneous route): 10 times; Mineralocorticoid antagonism Minimum effective dose [2, 3]: 25 μg/100 g
8 | CC(=O)OCC(=O)[C@@]1(O)CC[C@H]2[C@H]3[C@H]([C@@H](O)C[C@@]21C)[C@@]1(C)CCC(=O)C=C1C[C@H]3SC(C)=O [Control E, 7α-Acetylthio-21-acetoxy-11β-dihydroxy-4-pregnene-3,20-dione, reference compound] |  |  |  | Mineralocorticoid antagonism Minimum effective dose [2, 3]: inactive
9 | CCCCCCC(=O)OCC(=O)[C@H]1CC[C@H]2[C@@H]3[C@H](SC(C)=O)CC4=CC(=O)CC[C@]4(C)[C@H]3CC[C@]12C [Example 7] | 27 | 0.75 | 180 | In vivo antagonist activity compared with corresponding 7α-propionylthio derivative (Controls A, B, C, D) [2]: always more active
10 | CCCC(=O)OCC(=O)[C@H]1CC[C@H]2[C@@H]3[C@H](SC(C)=O)CC4=CC(=O)CC[C@]4(C)[C@H]3CC[C@]12C [Example 5] | 60 | 0.5 | 300 | In vivo antagonist activity compared with corresponding 7α-propionylthio derivative (Controls A, B, C, D) [2]: always more active
11 | CCCC(=O)OCC(=O)[C@H]1CC[C@H]2[C@@H]3[C@H](SC(=O)CC)CC4=CC(=O)CC[C@]4(C)[C@H]3CC[C@]12C [Control C, 7α-Propionylthio-21-butyroxy-4-pregnene-3,20-dione, reference compound] |  | 1.5 |  | 
12 | CC(=O)S[C@@H]1CC2=CC(=O)CC[C@]2(C)[C@H]2CC[C@]3(C)[C@@H](C(=O)COC(=O)C(C)(C)C)CC[C@H]3[C@H]12 [Example 8] | 45 | 0.75 | 300 | 
13 | CCC(=O)S[C@@H]1CC2=CC(=O)CC[C@]2(C)[C@H]2CC[C@]3(C)[C@@H](C(=O)COC(C)=O)CC[C@H]3[C@H]12 [Control B, 7α-Propionylthio-21-acetoxy-4-pregnene-3,20-dione, reference compound] |  | 1 |  | 
14 | CC(=O)S[C@@H]1CC2=CC(=O)CC[C@]2(C)[C@H]2CC[C@]3(C)[C@@H](C(C)=O)CC[C@H]3[C@H]12 [Example 1, 7α-Acetylthio-4-pregnene-3,20-dione] | 43 | 1 | 172 | In vivo antagonist activity compared with corresponding 7α-propionylthio derivative (Controls A, B, C, D) [2]: always more active
15 | CCCCC(=O)OCC(=O)[C@H]1CC[C@H]2[C@@H]3[C@H](SC(C)=O)CC4=CC(=O)CC[C@]4(C)[C@H]3CC[C@]12C [Example 6] | 68 | 1.5 | 340 | 
